We go through three molecules from PMC8704315, “Lichen-Derived Compounds and Extracts as Biologically Active Substances with Anticancer and Neuroprotective Properties” (Pharmaceuticals, 2021).

Holding throughout (type): biochemical
Experiment [1] deals with T1, indoleamine 2,3-dioxygenases 2 (IDO2) (Homo sapiens, UniProt Q6ZQW0).
T1 construct: purchased BPS Bioscience, Inc. (San Diego, CA, USA)
T1 sequence (Q6ZQW0 1-407): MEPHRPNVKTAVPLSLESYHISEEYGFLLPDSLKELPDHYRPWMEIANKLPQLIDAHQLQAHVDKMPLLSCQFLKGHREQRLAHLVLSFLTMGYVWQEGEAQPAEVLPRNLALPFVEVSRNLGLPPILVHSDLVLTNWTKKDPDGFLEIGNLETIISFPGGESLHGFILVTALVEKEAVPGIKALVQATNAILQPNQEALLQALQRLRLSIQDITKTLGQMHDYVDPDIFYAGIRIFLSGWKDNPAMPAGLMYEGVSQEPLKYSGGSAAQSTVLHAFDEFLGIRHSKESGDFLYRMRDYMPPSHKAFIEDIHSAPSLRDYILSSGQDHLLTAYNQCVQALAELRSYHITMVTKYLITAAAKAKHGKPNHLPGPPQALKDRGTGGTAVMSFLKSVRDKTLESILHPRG
As to the kind of experiment: Universal IDO1/IDO2/TDO Inhibitor Screening Assay Kit, IDO2. Particulars: for inhibition at 100 µg/mL: read-out: Inhibition (%) IDO2. The method, then: This colorimetric assay is based on the measurement of the ability of IDO1, IDO2 and TDO to convert L-tryptophan into N-formylkynurenine (NFK). The experiments were performed according to the manufacturer’s guidelines. The final concentration of the compounds and extracts in the reaction mixture was 100 µg/mL. The amount of NFK was measured spectrophotometrically at 320 nm using an Epoch BioTek microplate reader (BioTek Instruments, Inc., Winooski, VT, USA). The samples were run in triplicate and the results were expressed as mean ± SEM.

Experiment [2] addresses T2, COX-2 enzyme (Human recombinant) (Homo sapiens, UniProt P35354).
T2 construct: purchased Cayman 60122
T2 sequence (P35354 18-604): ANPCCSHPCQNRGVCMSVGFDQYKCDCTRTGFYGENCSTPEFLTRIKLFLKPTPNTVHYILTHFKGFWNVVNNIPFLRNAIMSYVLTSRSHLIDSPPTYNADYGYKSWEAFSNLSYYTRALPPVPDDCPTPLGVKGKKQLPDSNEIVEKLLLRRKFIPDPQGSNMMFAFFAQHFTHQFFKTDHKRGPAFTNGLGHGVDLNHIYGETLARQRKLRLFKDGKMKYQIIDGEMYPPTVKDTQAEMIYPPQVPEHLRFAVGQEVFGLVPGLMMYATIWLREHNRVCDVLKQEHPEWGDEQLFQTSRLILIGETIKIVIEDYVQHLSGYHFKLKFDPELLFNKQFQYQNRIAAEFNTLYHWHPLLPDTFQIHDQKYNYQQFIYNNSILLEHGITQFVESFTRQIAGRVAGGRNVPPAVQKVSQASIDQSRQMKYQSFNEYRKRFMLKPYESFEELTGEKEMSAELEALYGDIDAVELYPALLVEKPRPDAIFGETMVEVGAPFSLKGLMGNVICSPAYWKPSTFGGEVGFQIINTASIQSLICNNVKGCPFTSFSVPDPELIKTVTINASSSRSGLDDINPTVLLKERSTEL
Kind of experiment: COX-2 activity assay (Cayman COX Activity Assay Kit). The note with it: for inhibition at 250 µg/mL: read-out: COX-2 Inhibition (%). As to the method:
A volume of 0.01 mL of the studied sample, dissolved in pure DMSO to obtain 5 mg/mL, was mixed with 0.12 mL of Tris buffer (100 mM, pH 8.0), 0.01 mL hemin, shaken and left for 5 min at 25 °C followed by addition of 0.02 mL colorimetric substrate and 0.02 mL arachidonic acid solution. To start the reaction, 0.02 mL of COX-2 solution was added. The increase of absorbance during incubation at room temperature was recorded at 590 nm. Negative (blank) sample (buffer instead of studied sample) and positive sample (COX-2 inhibitor DuP-697) were run simultaneously. Background of studied samples (0.01 mL of sample mixed with 0.19 mL buffer) was also measured and included in the calculations. Each sample was run in at least 4 repeats. Inhibition of the enzyme activity was expressed in % (indicates by how many % the activity has been reduced in relation to the negative or blank sample for which the maximum activity was assumed as 100%, under the conditions used in the method). Also, inhibition of enzyme activity was expressed as acetylsalicylic acid equivalent concentration (mg/mL). For this purpose, acetylsalicylic acid solutions were prepared at 14 concentrations (0.2-10.0 mg/mL) and analyzed similarly to tested samples.

Experiment [3] deals with T3, glutathione reductase (GR) (Saccharomyces cerevisiae, UniProt P41921).
T3 construct: purchased Sigma Aldrich G3664
As to the kind of experiment: Effect on glutathione reductase activity. For GR Inhibition under Reaction Conditions (%): key: -: not active. The note with it: 444.4 μg/mL in the reaction mixture. As to the method: Sample (20 µL, 5 mg/mL of pure DMSO) was mixed with 10 μL of EDTA solution and 12 μL of GSSG solution and incubated for 5 min at 25 °C; 4 μL of NADPH solution and was then added (all reagents were dissolved in […] sodium phosphate buffer, pH 7.6), and the initial absorbance (340 nm) was recorded. The reaction was then started by addition of 2 U glutathione reductase (2 μL, Sigma Aldrich no G3664), 177 μL of […] sodium phosphate buffer, and the absorbance was recorded after 5 min of incubation at 25 °C. Concentrations of reagents in the final mixture ([…]) were as follows: 0.5 mM EDTA, 10 mM GSSG and 10 mM NADPH. Blank sample was prepared with buffer instead of the sample and background was measured (mixture containing studied sample and buffer only). One unit of enzyme activity has been defined as nMol of NADPH consumed/min·mL sample, in comparison with nMol of NADPH consumed/min in blank (reagent) sample [75].

Where [4] appears, read: sample 5 mg/mL stock, 250.0 µg/mL in assay, ± SEM.

Read-outs that look alike come from different tables or passages of the source.

T3 sequence (P41921 17-483): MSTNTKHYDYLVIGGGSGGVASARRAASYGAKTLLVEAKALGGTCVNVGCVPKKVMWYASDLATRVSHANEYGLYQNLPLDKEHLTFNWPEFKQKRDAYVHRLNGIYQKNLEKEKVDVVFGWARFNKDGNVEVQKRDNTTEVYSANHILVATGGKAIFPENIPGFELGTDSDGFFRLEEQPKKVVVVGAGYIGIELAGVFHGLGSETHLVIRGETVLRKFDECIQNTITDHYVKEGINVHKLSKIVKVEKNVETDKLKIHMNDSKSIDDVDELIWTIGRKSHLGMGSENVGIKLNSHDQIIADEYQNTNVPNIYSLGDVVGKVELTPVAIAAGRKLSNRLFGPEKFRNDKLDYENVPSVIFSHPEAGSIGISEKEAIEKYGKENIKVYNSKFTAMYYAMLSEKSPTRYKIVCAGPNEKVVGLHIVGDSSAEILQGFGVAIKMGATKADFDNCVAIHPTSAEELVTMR

As usually defined, the inhibition is the drop in the measured response relative to a control, in per cent. In the case of `Cc1cc(O)c(C=O)c2c1C(=O)Oc1c(CO)c(O)c3c(c1O2)C(O)OC3=O` (centres unmarked) [Salazinic acid, salazinic acid], in experiment [1] (100 µg/mL), the “Inhibition (%) IDO2” value is recorded as “did not exhibit any inhibition effect” and the inhibition at 100 µg/mL was less than 10%. Also, in experiment [2] (setting [4]), the “Equivalent Concentration of Acetylsalicylic Acid” value (shortened to “Equivalent Concentration”) is 12.9 ± 0.1 mg/mL and the inhibition at 250 µg/mL was 60.3 ± 3%. For the same molecule, the “GR Inhibition under Reaction Conditions (%)” value in experiment [3] is recorded as “-”.

Take `CC(=O)C1=C(O)C=C2Oc3c(C(C)=O)c(O)c(C)c(O)c3C2(C)C1=O` (single isomer, unassigned; (-)) [(−)-Usnic acid, (−)-usnic acid]: the inhibition at 100 µg/mL in experiment [1] is less than 10%. Besides, the inhibition at 250 µg/mL in experiment [2] came to 59.3 ± 3.5%. For the same molecule, in experiment [2] (setting [4]), the “Equivalent Concentration” value amounted to 12.9 ± 1.5 mg/mL. Besides, the “GR Inhibitory Activity (nMol Depleted NADPH/min Incubation)” value in experiment [3] was 710.2 ± 42.3 nMol Depleted NADPH/min Incubation. Further, the inhibition at 444.4 µg/mL in experiment [3] (read-out: GR Inhibition under Reaction Conditions (%)) was determined as 18.2 ± 2.2%.

Turning to `COc1cc(C)c(C(=O)Oc2cc(C)c(C(=O)O)c(O)c2)c(O)c1` [Evernic acid, evernic acid], in experiment [1] (100 µg/mL), the inhibition at 100 µg/mL is less than 10%. Besides, in experiment [2] (setting [4]), the “Equivalent Concentration” value is given as 10.9 ± 1.8 mg/mL and the inhibition at 250 µg/mL was 50.7 ± 2.1%. In addition, the “GR Inhibition under Reaction Conditions (%)” value in experiment [3] is on record as “-”.
